Reference: US7078404B2, “Acyl-3-carboxyphenylurea derivatives, processes for preparing them and their use” (Sanofi-Aventis Deutschland GmbH, priority 2002, dated 2006)

target: T1, Human glycogen phosphorylase a (Homo sapiens, UniProt P06737); assay: Glycogen phosphorylase a activity test; format: biochemical; conditions: 10 μM concentration of the test substance; GPa measured in the reverse direction, in vitro
T1 sequence (P06737 1-847): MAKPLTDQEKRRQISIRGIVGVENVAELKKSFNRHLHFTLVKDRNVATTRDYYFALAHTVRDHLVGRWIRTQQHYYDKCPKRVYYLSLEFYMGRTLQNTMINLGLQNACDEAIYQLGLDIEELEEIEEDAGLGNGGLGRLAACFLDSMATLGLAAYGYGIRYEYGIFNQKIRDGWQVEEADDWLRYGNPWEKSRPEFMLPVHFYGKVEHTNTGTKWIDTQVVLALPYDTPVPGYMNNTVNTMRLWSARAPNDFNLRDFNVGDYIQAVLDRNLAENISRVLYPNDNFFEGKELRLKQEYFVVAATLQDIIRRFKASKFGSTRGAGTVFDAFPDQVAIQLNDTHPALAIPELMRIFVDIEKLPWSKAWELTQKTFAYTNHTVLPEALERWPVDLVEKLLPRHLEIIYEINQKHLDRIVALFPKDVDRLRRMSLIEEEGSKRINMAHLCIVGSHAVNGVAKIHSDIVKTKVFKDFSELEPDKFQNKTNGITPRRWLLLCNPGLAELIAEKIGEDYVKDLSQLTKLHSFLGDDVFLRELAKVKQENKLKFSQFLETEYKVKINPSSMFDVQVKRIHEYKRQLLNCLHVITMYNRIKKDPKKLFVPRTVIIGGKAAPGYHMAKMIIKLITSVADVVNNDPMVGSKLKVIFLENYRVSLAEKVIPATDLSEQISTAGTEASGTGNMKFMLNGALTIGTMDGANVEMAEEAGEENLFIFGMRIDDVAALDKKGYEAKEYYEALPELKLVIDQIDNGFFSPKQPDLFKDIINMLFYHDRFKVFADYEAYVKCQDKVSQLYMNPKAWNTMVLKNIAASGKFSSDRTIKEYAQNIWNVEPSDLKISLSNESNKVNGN
Procedure: Glycogen Phosphorylase a Activity Test
The effect of compounds on the activity of the active form of glycogen phosphorylase (GPa) was measured in the reverse direction by monitoring the synthesis of glycogen from glucose 1-phosphate by determining the release of inorganic phosphate. All the reactions were carried out as duplicate determinations in 96-well microtiter plates (Half Area Plates, Costar No. 3696), with the change in absorption due to the formation of the reaction product being measured, at the wavelength specified below, in a Multiscan Ascent Elisa Reader (Lab Systems, Finland). In order to measure the enzymic activity of GPa in the reverse direction, the conversion of glucose 1-phosphate into glycogen and inorganic phosphate was measured in accordance with the general method of Engers et al. (Engers HD, Shechosky S, Madsen NB, Can J Biochem 1970 July;48(7): 746–754) but with the following modifications: Human glycogen phosphorylase a (for example containing 0.76 mg of protein/ml (Aventis Pharma Deutschland GmbH), dissolved in buffer solution E (25 mM β-glycerophosphate, pH 7.0, 1 mM EDTA and 1 mM dithiothreitol), was diluted with buffer T (50 mM Hepes, pH 7.0, 100 mM KCl, 2.5 mM EDTA, 2.5 mM MgCl2.6H2O), and addition of 5 mg of glycogen/ml, to a concentration of 10 μg of protein/ml. Test substances were prepared as a 10 mM solution in DMSO and diluted down to 50 μM with buffer solution T. 10 μl of 37.5 mM glucose, dissolved in buffer solution T and 5 mg/ml of glycogen, and also 10 μl of a solution of human glycogen phosphorylase a (10 μg of protein/ml) and 20 μl of glucose 1-phosphate, 2.5 mM, were added to […] of the solution. The basal value of the activity of the glycogen phosphorylase a in the absence of test substance was determined by adding 10 μl of buffer solution T (0.1% DMSO). The mixture was incubated at room temperature for 40 minutes and the inorganic phosphate which was released was measured using the general method of Drueckes et al. (Drueckes P, Schinzel R, Palm D, Anal Biochem […] Sep. 1;230(10):173–177) but with the following modifications: 50 μl of a stop solution of 7.3 mM ammonium molybdate, 10.9 mM zinc acetate, 3.6% ascorbic acid, 0.9% SDS are added to 50 μl of the enzyme mixture. After 60 minutes of incubation at 45° C., the absorption was measured at 820 nm. In order to determine the background absorption, the stop solution was added immediately after adding the glucose 1-phosphate solution in a separate assay. This test was carried out using a 10 μM concentration of the test substance in order to determine the respective inhibition of glycogen phosphorylase a by the test substance in vitro.

Row | SMILES | % inhibition at 10 μM [%] | inhibition at 10 µM [%]
1 | COc1ccc(C(=O)O)cc1NC(=O)NC(=O)c1ccc(C)cc1C [Example 14] | 57 | 
2 | COc1ccc(C(=O)O)cc1NC(=O)NC(=O)c1ccc(Cl)c(Cl)c1 [Example 10] | 41 | 
3 | NC(CO)(CO)CO.O=C(NC(=O)c1ccc(Cl)cc1Cl)Nc1cc(C(=O)O)ccc1Oc1ccccc1 [Example 24] | 65 | 
4 | COc1ccc(C(=O)O)cc1NC(=O)NC(=O)c1ccc(Cl)cc1F [Example 16] | 48 | 
5 | COCCOc1ccc(C(=O)O)cc1NC(=O)NC(=O)c1ccc(Cl)cc1Cl [Example 22] | 72 | 
6 | O=C(NC(=O)c1ccc(Cl)cc1Cl)Nc1cc(C(=O)O)ccc1Oc1ccccc1 [Example 23] | 55 | 
7 | COc1ccc(C(=O)O)cc1NC(=O)NC(=O)c1ccccc1C [Example 8] | 77 | 
8 | CCCOc1ccc(C(=O)O)cc1NC(=O)NC(=O)c1ccc(Cl)cc1Cl [Example 20] | 62 | 
9 | O=C(NC(=O)c1cc(Cl)ccc1Cl)Nc1cc(C(=O)O)ccc1Cl [Example 6] | 57 | 
10 | CCCCOc1ccc(C(=O)O)cc1NC(=O)NC(=O)c1ccc(Cl)cc1Cl [Example 21] | 64 | 
11 | O=C(NC(=O)c1ccc(F)cc1F)Nc1cc(C(=O)O)ccc1Cl [Example 17] | 52 | 
12 | COc1ccc(C(=O)O)cc1NC(=O)NC(=O)c1cc(Cl)ccc1Cl [Example 9] | 81 | 
13 | COc1ccc(C(=O)O)cc1NC(=O)NC(=O)c1ccccc1Cl [Example 2] | 75 | 
14 | NC(CO)(CO)CO.O=C(NC(=O)c1cc(Cl)ccc1Cl)Nc1cc(C(=O)O)ccc1Cl [Example 7] | 54 | 
15 | COc1ccc(C(=O)O)cc1NC(=O)NC(=O)c1ccc(F)cc1F [Example 18] | 69 | 
16 | O=C(NC(=O)c1ccccc1Cl)Nc1cc(C(=O)O)ccc1Cl [Example 11] | 49 | 

Results, then the compound that gave them:

Row | % inhibition at 10 μM [%] | inhibition at 10 µM [%] | SMILES
17 | 83 |  | O=C(NC(=O)c1ccc(Cl)cc1Cl)Nc1cc(C(=O)O)ccc1Cl [Example 12]
18 | 86 |  | CCOc1ccc(C(=O)O)cc1NC(=O)NC(=O)c1ccc(Cl)cc1Cl [Example 13]
19 | 49 |  | O=C(NC(=O)c1ccc(F)cc1Cl)Nc1cc(C(=O)O)ccc1C(F)(F)F [Example 25]
20 | 44 |  | O=C(NC(=O)c1ccc(Cl)cc1Cl)Nc1cc(C(=O)O)ccc1C(F)(F)F [Example 26]
21 | 90 |  | O=C(NC(=O)c1ccc(Cl)cc1Cl)Nc1cc(C(=O)O)ccc1OCCO [Example 19]
22 |  | 95 | COc1ccc(C(=O)O)cc1NC(=O)NC(=O)c1ccc(Cl)cc1Cl [Example 1, 3-[3-(2,4-Dichlorobenzoyl)ureido]-4-methoxybenzoic acid]
23 | 74 |  | O=C(NC(=O)c1ccc(Cl)cc1Cl)Nc1cc(C(=O)O)ccc1O [Example 3]
24 | 75 |  | O=C(NC(=O)c1ccc(Cl)cc1Cl)Nc1cc(C(=O)O)ccc1F [Example 4]
25 | 61 |  | O=C(NC(=O)c1ccc(Cl)cc1F)Nc1cc(C(=O)O)ccc1Cl [Example 15]
